# Data: US12116371B2, “Substituted pyridines as irreversible inhibitors of menin-MLL interaction” (BIOMEA FUSION, INC., priority 2018, dated 2024)
# Where two headings read alike, the source gives them in different places.
# Legend:
# Conditions in all cases: for IC50: Homo sapiens
# Panc 10.05 cells = assay: Proliferation assay, cells in adhesion; assay type: cell-based
# SK-LU-1/AMG510 cells = assay: Proliferation assay, cells in adhesion; assay type: cell-based
# SK-LU-1 cells = assay: Proliferation assay, cells in adhesion; assay type: cell-based
# MV4-11 cells = assay: Long term proliferation assay, Cell Titer-Glo read-out; assay type: cell-based, human
# Experimental: (§1) Compounds of invention are tested in the 5 suspension lines by 14-day long-term proliferation assay.
# (§2) The compound is tested in 10-pt dose titration (client will determine the starting concentration and the dilution scheme) and the final DMSO concentration is kept at 0.2%.
# (§3) On Day 0, in a flat bottom 96-well plate, add 100 μL of cells per well at the densities optimized. Prepare compounds in DMSO at 500× final concentration. Dilute the compounds with DMSO at the dilution. Dilute the compounds in media at 3× final concentration. Add 50 μL of compound or DMSO at 3× final concentration to each well. Final volume in each well is 150 μL, and final concentration of DMSO is 0.2%. Also include 3 untreated control wells, by adding 50 μL of media alone. Incubate plates for 96 hours.
# (§4) To do this take the total viable cell count calculated using step: • 1. Take the average of the replicates for each dose in order to be used in splitting the cells. • 2. Use a 96 well V-bottom plate to spin down the cells to remove old media and compound to split the cells. • 3. Based on the split ratio place the proper amount of media and cells into the V-bottom plate, and spin the plate at 1100 rpm for 5 minutes. • 4. Following the spin remove the media, careful not to disturb the cell pellet. Re-suspend pellet in 100 μL fresh media, and add to a new 96-well flat bottom plate. • 5. Add fresh compound, in the same manner as Step 3). • 6. Incubate plates for 72 hours. Repeat steps 5)-10) on Day 7. • 7. Incubate plates for 96 hours. Repeat Step 5)-10) on Day 11. • 8. Incubate 72 hours and repeat step 5) to take a final count. • 9. Data Analysis
# (§5) To calculate growth for days 4, 7, 11, and 14: • 1. Calculate the split factor for day 4 to 7, day 7 to 11, and day 11-14. The split factor is the viable cells/mL on Day X (either 4, 7 or 11) divided by the density the cells are being split back to. • 2. For growth of cells from day 4 to 7, multiply the day 7 viable cells/mL density by the split factor from day 4. • 3. For growth of cells from day 7 to 11, multiply the day 11 viable cells/mL density by the days 4, and 7 split factors. • 4. For growth of cells from Day 11 to 14, multiply the Day 14 viable cells/mL density by the days 4, 7, and 11 split factors. • 5. Plot growth on semi-log chart (viable cells/mL on Y axis, in log, and days on X axis). • 6. The growth inhibition was calculated with the formula ((untreated cell numbers-treated cell numbers)/untreated cell)). • 7. Calculate the IC50 for each compound in each line using XLFit (Sigmoidal Dose-Response Model, y=(Bottom+((Top-Bottom)/(1+((IC50/×)^Hill))))).
# MOLM-13 cells = assay: as above; assay type: cell-based, human
# Experimental: as §1, §2, §3, §4, §5
# MIAPaCa-2 cells = assay: Proliferation assay, cells in adhesion; assay type: cell-based
smiles,measurement,setting,value
CN(C)C/C=C/C(=O)Nc1ccc(CC(=O)Nc2ccc(-c3cc4c(N5CCOCC5)ncnc4[nH]3)cc2)cc1 [Compound 5],IC50,"Panc 10.05 cells; Panc1005, Panc 10.05, T4, read-out: IC50",> 5 µM
same,IC50,"Panc 10.05 cells; Panc1005, Panc 10.05, T4, read-out: pIC50 (converted)",> 5.01 µM
same,IC50,"Panc 10.05 cells; Panc1005, Panc 10.05, T7, read-out: IC50",> 5 µM
same,IC50,"Panc 10.05 cells; Panc1005, Panc 10.05, T7, read-out: pIC50 (converted)",> 5.01 µM
same,IC50,"Panc 10.05 cells; Panc1005, Panc 10.05, T11, read-out: IC50",4.17 µM
same,IC50,"Panc 10.05 cells; Panc1005, Panc 10.05, T11, read-out: pIC50 (converted)",4.17 µM
same,% max,"Panc 10.05 cells; Panc 10.05, T4",<50%
same,% max,"Panc 10.05 cells; Panc 10.05, T7",<50%
same,% max,"Panc 10.05 cells; Panc 10.05, T11",50%
same,IC50,"SK-LU-1/AMG510 cells; SK-LU-1, SK-LU-1/AMG510, T4, read-out: IC50",> 5 µM
same,IC50,"SK-LU-1/AMG510 cells; SK-LU-1, SK-LU-1/AMG510, T4, read-out: pIC50 (converted)",> 5.01 µM
same,IC50,"SK-LU-1/AMG510 cells; SK-LU-1, SK-LU-1/AMG510, T7, read-out: IC50",> 5 µM
same,IC50,"SK-LU-1/AMG510 cells; SK-LU-1, SK-LU-1/AMG510, T7, read-out: pIC50 (converted)",> 5.01 µM
same,IC50,"SK-LU-1/AMG510 cells; SK-LU-1/AMG510, T11, read-out: IC50",> 5 µM
same,IC50,"SK-LU-1/AMG510 cells; SK-LU-1/AMG510, T11, read-out: pIC50 (converted)",> 5.01 µM
same,% max,"SK-LU-1/AMG510 cells; SK-LU-1/AMG510, T4",<50%
same,% max,"SK-LU-1/AMG510 cells; SK-LU-1/AMG510, T7",<50%
same,% max,"SK-LU-1/AMG510 cells; SK-LU-1/AMG510, T11",<50%
same,IC50,"SK-LU-1 cells; SK-LU-1, SK-LU-1, T4, read-out: IC50",> 5 µM
same,IC50,"SK-LU-1 cells; SK-LU-1, SK-LU-1, T4, read-out: pIC50 (converted)",> 5.01 µM
same,IC50,"SK-LU-1 cells; SK-LU-1, SK-LU-1, T7, read-out: IC50",> 5 µM
same,IC50,"SK-LU-1 cells; SK-LU-1, SK-LU-1, T7, read-out: pIC50 (converted)",> 5.01 µM
same,IC50,"SK-LU-1 cells; SK-LU-1, SK-LU-1, T11, read-out: IC50",> 5 µM
same,IC50,"SK-LU-1 cells; SK-LU-1, SK-LU-1, T11, read-out: pIC50 (converted)",> 5.01 µM
same,% max,"SK-LU-1 cells; SK-LU-1, T4",<50%
same,% max,"SK-LU-1 cells; SK-LU-1, T7",<50%
same,% max,"SK-LU-1 cells; SK-LU-1, T11",<50%
same,IC50,"MV4-11 cells; MV4-11, 96 h, MV4-11, Day 4, Cell Titer-Glo, read-out: Day 4 IC50",0.36 µM
same,IC50,"MV4-11 cells; MV4-11, 168 h, MV4-11, Day 7, Cell Titer-Glo, read-out: Day 7 IC50",0.14 µM
same,IC50,"MV4-11 cells; MV4-11, 264 h, MV4-11, Day 11, Cell Titer-Glo, read-out: Day 11 IC50",0.11 µM
same,IC50,"MV4-11 cells; MV4-11, 336 h, MV4-11, Day 14, Cell Titer-Glo, read-out: Day 14 IC50",0.09 µM
same,IC50,"MV4-11 cells; MV4-11, MV4-11, T4, CellTiter-Glo, read-out: IC50",0.36 µM
same,IC50,"MV4-11 cells; MV4-11, MV4-11, T4, CellTiter-Glo, read-out: pIC50 (converted)",0.363 µM
same,IC50,"MV4-11 cells; MV4-11, MV4-11, T11, CellTiter-Glo, read-out: IC50",0.11 µM
same,IC50,"MV4-11 cells; MV4-11, MV4-11, T11, CellTiter-Glo, read-out: pIC50 (converted)",0.115 µM
same,% max,"MV4-11 cells; MV4-11, T4, CellTiter-Glo",99%
same,% max,"MV4-11 cells; MV4-11, T11, CellTiter-Glo",99%
same,IC50,"MOLM-13 cells; MOLM-13, 96 h, MOLM-13, Day 4, Cell Titer-Glo, read-out: Day 4 IC50",0.5 µM
same,IC50,"MOLM-13 cells; MOLM-13, 168 h, MOLM-13, Day 7, Cell Titer-Glo, read-out: Day 7 IC50",0.34 µM
same,IC50,"MOLM-13 cells; MOLM-13, 264 h, MOLM-13, Day 11, Cell Titer-Glo, read-out: Day 11 IC50",0.35 µM
same,IC50,"MOLM-13 cells; MOLM-13, 336 h, MOLM-13, Day 14, Cell Titer-Glo, read-out: Day 14 IC50",0.36 µM
same,IC50,"MOLM-13 cells; MOLM-13, MOLM-13, T4, CellTiter-Glo, read-out: IC50",0.5 µM
same,IC50,"MOLM-13 cells; MOLM-13, MOLM-13, T4, CellTiter-Glo, read-out: pIC50 (converted)",0.501 µM
same,IC50,"MOLM-13 cells; MOLM-13, MOLM-13, T11, CellTiter-Glo, read-out: IC50",0.35 µM
same,IC50,"MOLM-13 cells; MOLM-13, MOLM-13, T11, CellTiter-Glo, read-out: pIC50 (converted)",0.355 µM
same,% max,"MOLM-13 cells; MOLM-13, T4, CellTiter-Glo",98%
same,% max,"MOLM-13 cells; MOLM-13, T11, CellTiter-Glo",99%
same,IC50,"MIAPaCa-2 cells; MIA PaCa-2, MIAPaCa-2, T4, read-out: IC50",1.48 µM
same,IC50,"MIAPaCa-2 cells; MIA PaCa-2, MIAPaCa-2, T4, read-out: pIC50 (converted)",1.48 µM
same,IC50,"MIAPaCa-2 cells; MIA PaCa-2, MIAPaCa-2, T7, read-out: IC50",0.87 µM
same,IC50,"MIAPaCa-2 cells; MIA PaCa-2, MIAPaCa-2, T7, read-out: pIC50 (converted)",0.871 µM
same,IC50,"MIAPaCa-2 cells; MIA PaCa-2, MIAPaCa-2, T11, read-out: IC50",0.52 µM
same,IC50,"MIAPaCa-2 cells; MIA PaCa-2, MIAPaCa-2, T11, read-out: pIC50 (converted)",0.525 µM
same,% max,"MIAPaCa-2 cells; MIAPaCa-2, T4",95%
same,% max,"MIAPaCa-2 cells; MIAPaCa-2, T7",98%
same,% max,"MIAPaCa-2 cells; MIAPaCa-2, T11",99%
